This is an account of results in patent US4478840A, “Appetite suppressing compositions and methods” (E. I. Du Pont de Nemours and Company, priority 1983, dated 1984).

One experiment concerns rats. The settings on record: sweetened Enfamil baby formula; subcutaneous; cited from earlier work.
Another experiment concerns mammals. The conditions noted are these: oral; cited from earlier work.
The next experiment concerns Male CF1 mice. The experiment in a line: Anorexia test, subcutaneous dose route (milk consumption of fasted mice). The format is in vivo. The settings on record: Mus musculus, sc, male CF1 mice fasted 17 to 21 hours, dose at which treated mice would consume 50% as much milk as controls, milk 7 1/2 to 15 min after dose, 10 min count. Here is the method:
Male CF1 mice, which had been fasted for 17 to 21 hours, were dosed subcutaneously with the test compound (20 mice per dose) and placed into an individual compartment (13.3 cm×12.7 cm×12.7 cm) with a 0.64 cm×0.64 cm wire mesh floor. 71/2 to 15 minutes later a black Lucite bar (13 cm×1.2 cm×1.2 cm) in the top of which were ten shallow round spot depressions (0.8 cm diameter) was inserted into each compartment. Each depression contained 0.05 ml of 50% sweetened condensed milk.
Ten minutes after the milk was presented to the mice, the number of milk spots each mouse had consumed was counted. Fractions of spots consumed also were estimated and counted. Dose-response curves were plotted and from these the ED50%, the dose at which treated mice would be expected to consume 50% as much milk as control mice, was calculated.

A further experiment deals with Female CF1 mice. The experiment in a line: Anorexia test, oral dose route (milk consumption of fasted mice). The format is in vivo, mouse. The conditions noted are these: for ED50: Mus musculus, oral, female CF1 mice fasted 17 to 21 hours, dose at which treated mice would consume 50% as much milk as controls, milk 1/2 h after dose, 30 min count; for food intake in mice: summary statement on Table I. As for the experimental part:
Female CF1 mice, which had been fasted for 17 to 21 hours, were dosed orally with the test compound (ten or more mice per dose). One-half hour later, each mouse was transferred to an individual compartment (13.3 cm×12.7 cm×12.7 cm) with a 0.64 cm×0.64 cm wire mesh floor. Inside each compartment was a brass bar (13 cm×1.2 cm×1.2 cm) in the top of which were ten shallow, round spot depressions (0.8 cm diameter). Each depression contained 0.05 ml of 50% sweetened condensed milk.
Thirty minutes after the mice were transferred into the compartments, the number of milk spots each mouse had consumed was counted. Fractions of spots consumed also were estimated and counted. The percent anorexigenic effect was estimated by comparison of the mean number of spots of milk consumed per mouse at a given dose with the mean number of spots consumed per vehicle-treated control mouse. Dose-response curves were plotted and from these the ED50%, the dose at which treated mice would be expected to consume 50% as much milk as control mice, was calculated.

Another experiment relates to food-deprived rats. The settings on record: cited from earlier work.
In another experiment the test system is food-deprived mice. The settings on record: cited from earlier work.
A short description of experiment [1]: Analgesic/narcotic antagonist property. The conditions noted are these: stated in words, no test described.

Take `O=C1CC[C@@]2(O)[C@H]3Cc4ccc(O)c5c4[C@@]2(CCN3CC2CC2)[C@H]1O5` [Naltrexone, (-)-17-cyclopropylmethyl-4,5α-epoxy-3,14-dihydroxymorphinan-6-one]: in the experiment on rats, the “fluid intake of rats” value is recorded as “reduced”. The appetite suppression entry in the experiment with mammals is recorded as “appetite suppression”. The results for the ED50 with Male CF1 mice and in the experiment with Female CF1 mice were 0.4 mg/kg and 3 mg/kg, respectively.

Consider `Cl.Oc1ccc2c3c1O[C@H]1CCC[C@@]4(O)[C@@H](C2)N(CC2CCC2)CC[C@]314` [Example 2, 17-Cyclobutylmethyl-4,5α-epoxymorphinan-3,14-diol, Hydrochloride], for which the ED50 (usually the dose that gives a 50% effect, or the effect in half of the subjects) with Male CF1 mice is 3.2 mg/kg. In the experiment on Female CF1 mice, the 50% effect level (ED50) was put at a dose of 84 mg/kg and the “food intake in mice” value is “decreased food intake”.

Turning to `Cl.Oc1ccc2c3c1O[C@H]1CCC[C@@]4(O)[C@@H](C2)N(CC2CC2)CC[C@]314` [Example 1, 17-Cyclopropylmethyl-4,5α-epoxymorphinan-3,14-diol, Hydrochloride], in the experiment on Female CF1 mice, the 50% effect level (ED50) was put at a dose of 2.5 mg/kg and the “food intake in mice” value is “decreased food intake”.

Take `C=CCN1CC[C@]23c4c5ccc(O)c4O[C@H]2C(=O)CC[C@@]3(O)[C@H]1C5` [naloxone, N-allyl-14-hydroxy-7,8-dihydronormorphinone]: the “fluid intake of rats” value in the experiment on rats is listed as “reduced”. Further, in the experiment with food-deprived rats, the “eating by food-deprived rats” value is reported as “suppresses eating”. Further, the “eating by food-deprived mice” value in the experiment on food-deprived mice is “not by food-deprived mice”.

As to `Oc1ccc2c3c1O[C@H]1CCC[C@@]4(O)[C@@H](C2)N(CC2CCC2)CC[C@]314` [17-cyclobutylmethyl-4,5α-epoxymorphinan-3,14-diol], the analgesic/narcotic antagonist property result in experiment [1] is “mixed analgesic/narcotic antagonist”.

In the case of `C=CCN1CC[C@]23c4c5ccc(O)c4O[C@H]2[C@@H](O)C=C[C@H]3[C@H]1C5` [nalorphine, N-allylnormorphine], in the experiment with rats, the “fluid intake of rats” value is “reduced”.

As to `Oc1ccc2c3c1O[C@H]1CCC[C@@]4(O)[C@@H](C2)N(CC2CC2)CC[C@]314` [17-cyclopropylmethyl-4,5α-epoxymorphinan-3,14-diol], in experiment [1], the analgesic/narcotic antagonist property result is reported as “narcotic antagonist”.

For `CCNC(C)Cc1cccc(C(F)(F)F)c1` (centres unmarked) [Fenfluramine], the ED50 in the experiment with Male CF1 mice was 7.6 mg/kg; with Female CF1 mice, 13.5 mg/kg.
